From PubChem BioAssay (NCI)
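Interpolation was linear, between the two tested concentrations surrounding the appropriate level; five concentrations were tested over 48 hours in 96-well plates. Abbreviation: GI50, concentration required for 50% inhibition of growth. Definition used: TGI = concentration required for complete inhibition of growth.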

How the values were obtained:
Assay in all cases: inhibition of tumour cell growth, NCI panel, 48 h
HL-60(TB) leukemia = system: HL-60(TB) leukemia
KM12 colon = system: KM12 colon
MDA-MB-435 = system: MDA-MB-435
MDA-MB-231 breast = system: MDA-MB-231 breast
NCI-H522 lung = system: NCI-H522 lung
UO-31 renal = system: UO-31 renal
NCI-H226 lung = system: NCI-H226 lung
SK-MEL-5 melanoma = system: SK-MEL-5 melanoma
M14 melanoma = system: M14 melanoma
SF-539 CNS = system: SF-539 CNS

SMILES	GI50 (HL-60(TB) leukemia) [µM]	TGI (HL-60(TB) leukemia) [µM]	GI50 (KM12 colon) [µM]	TGI (KM12 colon) [µM]	GI50 (MDA-MB-435) [µM]	TGI (MDA-MB-435) [µM]	GI50 (MDA-MB-231 breast) [µM]	TGI (MDA-MB-231 breast) [µM]	GI50 (NCI-H522 lung) [µM]	TGI (NCI-H522 lung) [µM]	GI50 (UO-31 renal) [µM]	TGI (UO-31 renal) [µM]	GI50 (NCI-H226 lung) [µM]	TGI (NCI-H226 lung) [µM]	GI50 (SK-MEL-5 melanoma) [µM]	TGI (SK-MEL-5 melanoma) [µM]	GI50 (M14 melanoma) [µM]	TGI (M14 melanoma) [µM]	TGI (SF-539 CNS) [µM]
CO/N=C(\C)COc1ccc2c(=O)c(-c3ccccc3)coc2c1	37.7	> 100	> 100	> 100	> 100	> 100	20.5	40.9	22.2	79	22.2	46.3	36.4	> 100	> 100	> 100	93.7	> 100	–
COc1cc(C2C(C(=O)O)=C(COC(C)=O)Oc3cc4c(cc32)OCO4)cc(OC)c1OC (stereo not drawn)	–	> 100	–	–	–	–	–	–	–	–	–	> 100	–	–	–	> 100	–	> 100	–
CCCCCCOP(=O)(OCCCCCC)C(NC(=O)OCC)(C(F)(F)F)C(F)(F)F	–	> 100	–	> 100	–	> 100	–	56.6	–	52.6	–	72.2	–	66.2	–	44.1	–	> 100	> 100
CNC(=O)N(C)COC	–	> 100	–	> 100	–	–	–	–	–	> 100	–	> 100	–	> 100	–	–	–	> 100	> 100
CCOC(=O)C(O)(NC(=O)c1ccccc1F)C(F)(F)F (stereo not drawn)	–	> 100	–	> 100	–	> 100	–	> 100	–	> 100	–	> 100	–	> 100	–	> 100	–	> 100	> 100
N#Cc1c(N)sc2c1-c1ccccc1OC2	–	82.1	–	> 100	–	> 100	–	> 100	–	–	–	70	–	> 100	–	> 100	–	> 100	> 100
CCc1ccc2nc(-c3ccc(O)cc3)sc2c1	–	10.2	–	32.7	–	39.5	–	29.9	–	18.3	–	24.4	–	30.1	–	34.6	–	35.5	27.8
